{"source": "patent US4416877A", "about": "“Anti-atherosclerotic pharmaceutical compositions containing diphosphonate compounds” (priority 1979, dated 1983)", "key": {"[1]": {"tested_on": "lipoprotein cholesterol", "experiment": "Lipoprotein changes in normal Cynomolgus monkeys treated during 60 days", "assay_type": "in vivo", "settings": "for Total Cholesterol / alpha Cholesterol / alpha/beta Cholesterol Ratio / beta Cholesterol: n = 7", "experimental": "To further test the long term efficacity of compound 16, normal male and female Cynomolgus monkeys were treated during 60 days (Table XIII).\nDose: 25 mg/kg/day for 45 days 50 mg/kg/day for last 15 days"}, "[2]": {"tested_on": "lipoprotein cholesterol", "experiment": "Lipoprotein cholesterol changes in normal rats treated for 90 days", "assay_type": "in vivo, male and female rats", "experimental": "(§1) Treating male and female rats with 40, 400 and 800 mg/kg of compound 16 per day for 90 days produced a sustained dose response augmentation in serum high density lipoprotein cholesterol (HDL-C or α-cholesterol) as high as 220% above controls at high dose level (Table VI).\n*Plasma was pooled from 5 animals of each group and analyzed."}, "[3]": {"experiment": "Oral LD50 toxicity", "assay_type": "in vivo", "from_the_text": "Following the extensive pharmacological screening of these compounds, using over 2000 animals, those showing the most potential were then subjected to toxicity testing for further selection relative to their activity/toxicity risk profiles\nBy way of LD50 (Lethal Dose 50) the methyl diphosphonates were discovered to have a significant lower degree of toxicity. […] This represents a significant six fold difference in toxicity."}, "[4]": {"tested_on": "renin", "experiment": "Renin activity in normal monkeys treated for 60 days", "assay_type": "in vivo, Cynomolgus monkeys", "from_the_text": "In order to further elucidate the mechanism of the previously observed hypotensive activity, the renin-angiotensin system was also monitored in these animals at the same time. […] However at this dosage concentration the inhibition appeared to be time dependent."}, "[5]": {"tested_on": "tissue cholesterol", "experiment": "Effects in cholesterol fed rats (serum, liver and aorta lipids)", "assay_type": "in vivo", "settings": "for change in vivo at 200 mg/kg/day: Rattus norvegicus", "summary_of_the_method": "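Rats given a high fat–high cholesterol diet (4.5% cholesterol, 1.8% sodium cholate) for 10 days to 3 months, then normal food plus compound at 200 mg/kg/day for 10 days to 3 months. Liver and aorta lipids Folch-extracted; total lipids by sulfophosphovanillic reaction, cholesterol by Liebermann–Burchard or enzymatic method. Values expressed as % of control.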"}, "[6]": {"experiment": "Weight of fat tissue from rats treated for 90 days", "assay_type": "in vivo, male and female rats", "experimental": "as §1"}, "[7]": {"tested_on": "plasma lipoproteins", "experiment": "Plasma lipoproteins in Cynomolgus monkeys fed simultaneously a high cholesterol diet during 60 days", "assay_type": "in vivo", "settings": "for HDL Chol. / α/β Chol. ratio: n = 7", "experimental": "| Dose: 25 mg d.i.d. per day"}, "[8]": {"experiment": "Atheromateous surface involvement and intima thickening of aortas in cholesterol pre-fed rabbits", "assay_type": "in vivo", "settings": "4 months"}, "[9]": {"tested_on": "lipoprotein cholesterol", "experiment": "Lipoprotein cholesterol in cholesterol pre-fed rabbits", "assay_type": "in vivo", "settings": "200 mg/kg per day, 4 months, n = 5", "from_the_text": "Animals were fed a cholesterol rich diet for 8 weeks before treatment was\nstarted which continued for 4 months without cholesterol supplement."}, "[10]": {"settings": "60 days, 50 mg/kg/day for last 15 days"}, "[11]": {"settings": "cholesterol fed rats (C.F), 200 mg/kg/day"}, "[12]": {"settings": "30 days on high cholesterol diet"}, "[13]": {"settings": "60 days on high cholesterol diet"}}, "note": "Where two headings read alike, the source gives them in different places."}
{"molecule": "COP(=O)(OC)OC(c1ccc(Cl)cc1)P(=O)(OC)OC", "note": "(stereo not drawn) [Compound 16, Dimethyl α(dimethoxyphosphinyl) p-chlorobenzyl phosphate]", "values": [{"measurement": "Total Cholesterol", "setting": "[1]; 45 days, 25 mg/kg/day", "value": "99 ± 8", "unit": "mg/100 ml"}, {"measurement": "alpha Cholesterol", "setting": "[1]; 45 days, 25 mg/kg/day", "value": "54 ± 5", "unit": "mg/100 ml"}, {"measurement": "alpha/beta Cholesterol Ratio", "setting": "[1]; 45 days, 25 mg/kg/day", "value": 1.17}, {"measurement": "beta Cholesterol", "setting": "[1]; 45 days, 25 mg/kg/day", "value": "46 ± 4", "unit": "mg/100 ml"}, {"measurement": "Total Cholesterol", "setting": "[1]; [10]", "value": "85 ± 7", "unit": "mg/100 ml"}, {"measurement": "alpha Cholesterol", "setting": "[1]; [10]", "value": "46 ± 4", "unit": "mg/100 ml"}, {"measurement": "alpha/beta Cholesterol Ratio", "setting": "[1]; [10]", "value": 1.09}, {"measurement": "beta Cholesterol", "setting": "[1]; [10]", "value": "41 ± 5", "unit": "mg/100 ml"}, {"measurement": "HDL (α-cholesterol) and α/β ratio", "setting": "[1]; normal monkeys", "value": "augmentation in HDL (α-cholesterol) and a significant increase in α/β ratio"}, {"measurement": "blood urea levels", "setting": "[1]; normal monkeys, treated vs controls", "value": "significantly lower"}, {"measurement": "α-chol", "setting": "[2]; 40 mg/kg, female", "value": 54, "unit": "mg/dL"}, {"measurement": "α/β ratio", "setting": "[2]; 40 mg/kg, female", "value": 6.0}, {"measurement": "β-chol", "setting": "[2]; 40 mg/kg, female", "value": 9.0, "unit": "mg/dL"}, {"measurement": "α-chol", "setting": "[2]; 40 mg/kg, male", "value": 63, "unit": "mg/dL"}, {"measurement": "α/β ratio", "setting": "[2]; 40 mg/kg, male", "value": 7.6}, {"measurement": "β-chol", "setting": "[2]; 40 mg/kg, male", "value": 8.3, "unit": "mg/dL"}, {"measurement": "α-chol", "setting": "[2]; 400 mg/kg, female", "value": 68, "unit": "mg/dL"}, {"measurement": "α/β ratio", "setting": "[2]; 400 mg/kg, female", "value": 11.5}, {"measurement": "β-chol", "setting": "[2]; 400 mg/kg, female", "value": 5.9, "unit": "mg/dL"}, {"measurement": "α-chol", "setting": "[2]; 400 mg/kg, male", "value": 78, "unit": "mg/dL"}, {"measurement": "α/β ratio", "setting": "[2]; 400 mg/kg, male", "value": 11.5}, {"measurement": "β-chol", "setting": "[2]; 400 mg/kg, male", "value": 7.6, "unit": "mg/dL"}, {"measurement": "α-chol", "setting": "[2]; 800 mg/kg, female", "value": 117, "unit": "mg/dL"}, {"measurement": "α/β ratio", "setting": "[2]; 800 mg/kg, female", "value": 11.3}, {"measurement": "β-chol", "setting": "[2]; 800 mg/kg, female", "value": 10.3, "unit": "mg/dL"}, {"measurement": "α-chol", "setting": "[2]; 800 mg/kg, male", "value": 128, "unit": "mg/dL"}, {"measurement": "α/β ratio", "setting": "[2]; 800 mg/kg, male", "value": 10.7}, {"measurement": "β-chol", "setting": "[2]; 800 mg/kg, male", "value": 11.9, "unit": "mg/dL"}, {"measurement": "augmentation in serum HDL-C (α-cholesterol) above controls", "setting": "[2]; high dose level (800 mg/kg)", "value": "≤ 220", "unit": "%"}, {"measurement": "LD50", "setting": "[3]; in vivo, oral", "value": 3040, "unit": "mg/kg"}, {"measurement": "difference in toxicity (LD50, compound 16 vs compound 24)", "setting": "[3]; oral LD50", "value": "six fold"}, {"measurement": "Renin Activity", "setting": "[4]; controls 5.9±0.9", "value": "0.3±0.1", "unit": "ng AI /ml/h"}, {"measurement": "inhibition of renin", "setting": "[4]; male and female monkeys", "value": "highly significant and almost complete inhibition of renin"}, {"measurement": "change in vivo at 200 mg/kg/day", "setting": "[5]; cholesterol fed rats (C.F), 200 mg/kg/day, read-out: Liver Chol. (% control values)", "value": -57, "unit": "%"}, {"measurement": "change in vivo at 200 mg/kg/day", "setting": "[5]; cholesterol fed rats (C.F), 200 mg/kg/day, read-out: Liver Total Lipids (% control values)", "value": -32, "unit": "%"}, {"measurement": "liver total lipids and/or liver cholesterol", "setting": "[5]; cholesterol fed rats", "value": "decreased significantly"}, {"measurement": "Aorta Chol. (% control values)", "setting": "[5]; [11]", "value": -30, "unit": "%"}, {"measurement": "Aorta Total Lipids (% control values)", "setting": "[5]; [11]", "value": -37, "unit": "%"}, {"measurement": "Serum Chol. α/β (% control values)", "setting": "[5]; [11]", "value": "+169%"}, {"measurement": "decreasing the weight of fat tissue", "setting": "[6]; 40, 400 and 800 mg/kg", "value": "impressive dose response effect in decreasing the weight of fat tissue"}, {"measurement": "Weight of fat tissue", "setting": "[6]; females, 40 mg/kg, n = 10", "value": "1.33 ± 0.66", "unit": "g"}, {"measurement": "Weight of fat tissue", "setting": "[6]; females, 400 mg/kg, n = 5", "value": "0.39 ± 0.24", "unit": "g"}, {"measurement": "Weight of fat tissue", "setting": "[6]; females, 800 mg/kg, n = 5", "value": "0.48 ± 0.14", "unit": "g"}, {"measurement": "Weight of fat tissue", "setting": "[6]; males, 40 mg/kg, n = 8", "value": "2.49 ± 0.94", "unit": "g"}, {"measurement": "Weight of fat tissue", "setting": "[6]; males, 400 mg/kg, n = 5", "value": "1.95 ± 0.52", "unit": "g"}, {"measurement": "Weight of fat tissue", "setting": "[6]; males, 800 mg/kg, n = 5", "value": "0.97 ± 0.30", "unit": "g"}, {"measurement": "HDL Chol.", "setting": "[7]; [12]", "value": "49 ± 4", "unit": "mg/100 ml"}, {"measurement": "α/β Chol. ratio", "setting": "[7]; [12]", "value": "0.22 ± 0.05"}, {"measurement": "HDL Chol.", "setting": "[7]; [13]", "value": "39 ± 6", "unit": "mg/100 ml"}, {"measurement": "α/β Chol. ratio", "setting": "[7]; [13]", "value": "0.22 ± 0.05"}, {"measurement": "HDL-C values and α/β ratios", "setting": "[7]; simultaneous cholesterol feeding, 60 days", "value": "increase HDL-C values and the α/β ratios"}, {"measurement": "Arch Intima/Media Ratio", "setting": "[8]; 100 mg/kg/day, n = 4", "value": 0.79}, {"measurement": "Arterial Wall Thickness, Arch Intima", "setting": "[8]; 100 mg/kg/day, n = 4", "value": "41.82 ± 0.93", "unit": "Units in Area"}, {"measurement": "Arterial Wall Thickness, Thoracic Intima", "setting": "[8]; 100 mg/kg/day, n = 4", "value": "7.66 ± 0.12", "unit": "Units in Area"}, {"measurement": "Surface Involved in Atheromateous Plaques, Arch", "setting": "[8]; 100 mg/kg/day, n = 4", "value": "88 ± 9", "unit": "%"}, {"measurement": "Surface Involved in Atheromateous Plaques, Thoracic", "setting": "[8]; 100 mg/kg/day, n = 4", "value": "50 ± 15", "unit": "%"}, {"measurement": "Surface Involved in Atheromateous Plaques, Total Aorta", "setting": "[8]; 100 mg/kg/day, n = 4", "value": "68 ± 12", "unit": "%"}, {"measurement": "Thoracic Intima/Media Ratio", "setting": "[8]; 100 mg/kg/day, n = 4", "value": 0.23}, {"measurement": "aorta intimal thickening", "setting": "[8]; cholesterol pre-fed rabbits", "value": "decreased aorta intimal thickening"}, {"measurement": "atherosclerosis surface involvement", "setting": "[8]; cholesterol pre-fed rabbits", "value": "decreased atherosclerosis surface involvement"}, {"measurement": "Total Cholesterol", "setting": "[9]", "value": "127.0 ± 68.0"}, {"measurement": "α-chol", "setting": "[9]", "value": "41.1 ± 11.1"}, {"measurement": "α/β-ratio", "setting": "[9]", "value": 0.94}, {"measurement": "β-chol", "setting": "[9]", "value": "63.4 ± 43.0"}, {"measurement": "α/β-ratio", "setting": "[9]; listed as Cpd 16", "value": "0.94 ± 0.20"}]}
